The target in the assay is T1, GSK3β (Homo sapiens, UniProt P49841).
T1 construct: purchased Upstate 14-306
The assay can be described thus: In vitro biochemical GSK3β inhibition assay (pyruvate kinase/lactate dehydrogenase-coupled, NADH fluorescence). Conditions: 5 nM GSK3β, 40 μM GSK3β substrate GSM, 50 μM ATP, 30° C. for 2 hours. As for the experimental part:
The inhibitory activity of active substances is determined in a biochemical assay. The ingredients required for this purpose are mixed in a black 384-well microtitre plate with transparent base (from Greiner, catalogue number 781092). The ingredients required for each well of the 384-well microtitre plate are 5 nM GSK3β (from Upstate, catalogue number 14-306), 40 μM GSK3β substrate GSM (sequence H-RRRPASVPPSPSLSRHS-(pS)-HQRR, from Upstate, catalogue number 2-533), 30 μM nicotinamide adenine dinucleotide NADH (Roche Diagnostics, catalogue number 10107735), 50 μM adenosine triphosphate ATP (from Sigma, catalogue number A7966), 2 mM phosphoenolpyruvate (from Roche, catalogue number 128112), and approx. 1 U/ml pyruvate kinase and approx. 1 U/ml lactate dehydrogenase, which are present together in a stock formulation (from Roche, catalogue number 10737291001, suspension with approx. 450 U/ml pyruvate kinase activity, approx. 450 U/ml lactate dehydrogenase activity in […] ammonium sulphate solution pH 6). 1 unit of pyruvate kinase converts 1 μmol of phosphoenolpyruvate to pyruvate per minute at pH 7.6 and 37° C., and 1 unit of lactate dehydrogenase reduces 1 μmol of pyruvate to lactate per minute at pH 7.5 and 37° C. The reaction buffer required, in which the biochemical reaction proceeds, consists of 50 mM Trizma hydrochloride Tris-HCl pH: 7.5 (from Sigma, catalogue number T3253), 5 mM magnesium chloride MgCl2 (from Sigma, catalogue number M8266), 0.2 mM DL-dithiothreitol DTT (from Sigma, catalogue number D9779), 2 mM ethylenediamine ether tetraacid EDTA (from Sigma, catalogue number E6758), 0.01% Triton X-100 (from Sigma, catalogue number T8787) and 0.05% bovine serum albumin BSA (from Sigma, catalogue number B4287).
Active substances are dissolved in dimethyl sulphoxide DMSO (from Sigma, catalogue number D8418) in a concentration of 10 mM. Active substances are added in serial concentrations of 10 μM, 1 μM, 0.1 μM, 0.01 μM, 0.001 μM, 0.0001 μM, 0.00001 μM, 0.000001 μM to the mixtures of the biochemical reaction. As control, dimethyl sulphoxide is added instead of substance in a final concentration of 0.1%.
The reaction is incubated at 30° C. for 2 hours and then the resulting fluorescence is measured in a Tecan Safire-XFLUOR4 instrument, version V4.50 (serial number 12901300283) with the specifications: measurement mode—fluorescence measured from below, excitation wavelength 340 nm, emission wavelength 465 nm, excitation slit width 5 nm, emission slit width 5 nm, gain mode 120, delay 0 μs, number of light flashes per measurement 3, and an integration time of 40 μs.
The activity of the active substances is calculated in relation to these 0% and 100%.

The structures appear in SMILES notation. pIC50: −log10 of the molar value.

T1 sequence (P49841 whole entry): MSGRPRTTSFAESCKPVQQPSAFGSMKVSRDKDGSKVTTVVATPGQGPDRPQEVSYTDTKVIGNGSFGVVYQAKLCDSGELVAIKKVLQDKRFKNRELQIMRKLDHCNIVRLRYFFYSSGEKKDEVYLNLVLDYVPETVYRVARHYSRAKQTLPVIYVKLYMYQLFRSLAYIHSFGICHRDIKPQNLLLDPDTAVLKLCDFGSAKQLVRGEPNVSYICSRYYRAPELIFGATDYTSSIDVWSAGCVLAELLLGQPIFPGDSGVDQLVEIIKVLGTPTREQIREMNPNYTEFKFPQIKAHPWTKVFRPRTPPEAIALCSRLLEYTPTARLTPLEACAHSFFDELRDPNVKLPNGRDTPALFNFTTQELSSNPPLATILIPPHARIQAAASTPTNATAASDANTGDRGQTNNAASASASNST

With `N#Cc1ccc(-c2ccc(Cl)cc2Cl)nc1N1CCCC(Nc2ccc(C(=O)C(F)(F)F)c(N)n2)C1` (single isomer, unassigned) [Example Ent-B-2, 2-(3-{[6-amino-5-(trifluoroacetyl)pyridin-2-yl]amino}piperidin-1-yl)-6-(2,4-dichlorophenyl)pyridine-3-carbonitrile], the pIC50 is 8.30.

The compound `COc1ccccc1-c1ccc(C(=O)N2CCN(C(C)C)CC2)c(N2CCCC(Nc3ccc(C(=O)C(F)(F)F)c(N)n3)C2)n1` (single isomer, unassigned) [Example Ent-B-12, 1-[2-amino-6-({1-[6-(2-methoxyphenyl)-3-{[4-(propan-2-yl)-piperazin-1-yl]carbonyl}pyridin-2-yl]piperidin-3-yl}amino)pyridin-3-yl]-2,2,2-trifluoroethanone] gave a pIC50 of 8.20. For `N#Cc1ccc(NC2CCCN(c3nc(-c4ccc(Cl)cc4Cl)ccc3C#N)C2)nc1N` (stereo not shown) [Example 6, 2-Amino-6-({1-[3-cyano-6-(2,4-dichlorophenyl)pyridin-2-yl]piperidin-3-yl}amino)-pyridine-3-carbonitrile], the pIC50 is 7.59. In turn, `N#Cc1ccc(NC2CCCN(c3nc(-c4ccc(Cl)cc4Cl)ccc3C#N)C2)nc1` (stereo not shown) [Example 7, 2-{3-[(5-Cyanopyridin-2-yl)amino]piperidin-1-yl}-6-(2,4-dichlorophenyl)pyridine-3-carbonitrile] gave a pIC50 of 7.92. This pIC50 is 0.33 log units higher than that of the compound before.

The pIC50 is −log10 of the IC50, conventionally taken in molar units. Higher therefore signals a low IC50.

Values taken from patent US8664246B2, “Substituted pyridines, and use thereof as GSK3 inhibitors” (Bayer Intellectual Property GmbH, priority 2008, dated 2014).
